Patent US10730863B2, “Bridged bicyclic compounds as farnesoid X receptor modulators” (BRISTOL-MYERS SQUIBB COMPANY, priority 2017, dated 2020)

Biological target: FXR (Homo sapiens (Human), UniProt Q96RI1)
Assay: FXR EC50 (FXR agonist activity reported with each example)
Type: cell-based

Sequence of FXR (Q96RI1 262-486): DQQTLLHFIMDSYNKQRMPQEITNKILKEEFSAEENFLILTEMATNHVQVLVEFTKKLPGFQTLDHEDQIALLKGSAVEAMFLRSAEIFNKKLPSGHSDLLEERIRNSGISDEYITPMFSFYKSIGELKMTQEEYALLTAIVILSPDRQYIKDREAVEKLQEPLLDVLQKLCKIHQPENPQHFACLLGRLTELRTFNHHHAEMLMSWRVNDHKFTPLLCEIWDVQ

Row | SMILES | EC50 [nM]
1 | Cn1cc(C(=O)O)c2ccc(OCC34CCC(OCc5c(-c6c(Cl)cncc6Cl)noc5C5CC5)(CC3)CC4)cc21 [Example 97, 6-((4-((5-cyclopropyl-3-(3,5-dichloropyridin-4-yl)isoxazol-4-yl)methoxy)bicyclo[2.2.2]octan-1-yl)methoxy)-1-methyl-1H-indole-3-carboxylic acid] | 28
2 | O=C(O)c1ccc(F)c(OCC23CCC(OCc4c(-c5c(Cl)cncc5Cl)noc4C4CC4)(CC2)CC3)c1 [Example 98, 3-((4-((5-cyclopropyl-3-(3,5-dichloropyridin-4-yl)isoxazol-4-yl)methoxy)bicyclo[2.2.2]octan-1-yl)methoxy)-4-fluorobenzoic acid] | 22
3 | O=C(O)c1ccc(OCC23CCC(OCc4c(-c5c(Cl)cccc5Cl)noc4C4CC4)(CC2)CC3)cc1 [Example 99, 4-((4-((5-cyclopropyl-3-(2,6-dichlorophenyl)isoxazol-4-yl)methoxy)bicyclo[2.2.2]octan-1-yl)methoxy) benzoic acid] | 140
4 | O=C(O)c1cc(C(F)(F)F)c2cc(OCC34CCC(OCc5c(-c6c(Cl)cccc6Cl)noc5C5CC5)(CC3)CC4)ccc2n1 [Example 100, 6-((4-((5-cyclopropyl-3-(2,6-dichlorophenyl)isoxazol-4-yl)methoxy)bicyclo[2.2.2]octan-1-yl)methoxy)-4-(trifluoromethyl) quinoline-2-carboxylic acid] | 7
5 | O=C(O)c1cc(OCC23CCC(OCc4c(-c5c(Cl)cncc5Cl)noc4C4CC4)(CC2)CC3)cc(C(F)(F)F)c1 [Example 103, 3-((4-((5-cyclopropyl-3-(3,5-dichloropyridin-4-yl)isoxazol-4-yl)methoxy)bicyclo[2.2.2]octan-1-yl)methoxy)-5-(trifluoromethyl)benzoic acid] | 4
6 | O=C(O)Cc1ccnc(OCC23CCC(OCc4c(-c5c(Cl)cccc5Cl)noc4C4CC4)(CC2)CC3)c1 [Example 104, 2-(2-((4-((5-cyclopropyl-3-(2,6-dichlorophenyl)isoxazol-4-yl)methoxy)bicyclo[2.2.2]octan-1-yl)methoxy)pyridin-4-yl)acetic acid] | 210
7 | O=C(O)c1ccc2cc(OCC34CCC(OCc5c(-c6c(Cl)cccc6Cl)noc5C5CC5)(CC3)CC4)ccc2n1 [Example 105, 6-((4-((5-cyclopropyl-3-(2,6-dichlorophenyl)isoxazol-4-yl)methoxy)bicyclo[2.2.2]octan-1-yl)methoxy)quinoline-2-carboxylic acid] | 76
8 | O=C(O)Cc1cccc(OCC23CCC(OCc4c(-c5c(Cl)cccc5Cl)noc4C4CC4)(CC2)CC3)c1 [Example 106, 2-(3-((4-((5-cyclopropyl-3-(2,6-dichlorophenyl)isoxazol-4-yl)methoxy)bicyclo[2.2.2]octan-1-yl)methoxy)phenyl)acetic acid] | 160
9 | O=C(O)c1ccc(OCC23CCC(OCc4c(-c5c(Cl)cccc5Cl)noc4C4CC4)(CC2)CC3)nc1 [Example 107, 6-((4-((5-cyclopropyl-3-(2,6-dichlorophenyl)isoxazol-4-yl)methoxy)bicyclo[2.2.2]octan-1-yl)methoxy)nicotinic acid] | 77
10 | O=C(O)c1ccnc(OCC23CCC(OCc4c(-c5c(Cl)cccc5Cl)noc4C4CC4)(CC2)CC3)n1 [Example 108, 2-((4-((5-cyclopropyl-3-(2,6-dichlorophenyl)isoxazol-4-yl)methoxy)bicyclo[2.2.2]octan-1-yl)methoxy)pyrimidine-4-carboxylic acid] | 540
11 | O=C(O)c1cncc(OCC23CCC(OCc4c(-c5c(Cl)cccc5Cl)noc4C4CC4)(CC2)CC3)c1 [Example 109, 5-((4-((5-cyclopropyl-3-(2,6-dichlorophenyl)isoxazol-4-yl)methoxy)bicyclo[2.2.2]octan-1-yl)methoxy)nicotinic acid] | 150
12 | O=C(O)c1cccc(OCC23CCC(OCc4c(-c5c(Cl)cccc5Cl)noc4C4CC4)(CC2)CC3)n1 [Example 110, 6-((4-((5-cyclopropyl-3-(2,6-dichlorophenyl)isoxazol-4-yl)methoxy)bicyclo[2.2.2]octan-1-yl)methoxy)picolinic acid] | 52
13 | O=C(O)c1ccnc(OCC23CCC(OCc4c(-c5c(Cl)cccc5Cl)noc4C4CC4)(CC2)CC3)c1 [Example 111, 2-((4-((5-cyclopropyl-3-(2,6-dichlorophenyl)isoxazol-4-yl)methoxy)bicyclo[2.2.2]octan-1-yl)methoxy)isonicotinic acid] | 110
14 | O=C(O)c1cncc(OCC23CCC(OCc4c(-c5c(Cl)cccc5Cl)noc4C4CC4)(CC2)CC3)n1 [Example 112, 6-((4-((5-cyclopropyl-3-(2,6-dichlorophenyl)isoxazol-4-yl)methoxy)bicyclo[2.2.2]octan-1-yl)methoxy)pyrazine-2-carboxylic acid] | 690
15 | O=C(O)c1cccc(OCC23CCC(OCc4c(-c5c(Cl)cncc5Cl)noc4C4CC4)(CC2)CC3)n1 [Example 113, 6-((4-((5-cyclopropyl-3-(3,5-dichloropyridin-4-yl)isoxazol-4-yl)methoxy)bicyclo[2.2.2]octan-1-yl)methoxy)picolinic acid] | 92
16 | O=C(O)c1ccc(OCC23CCC(OCc4c(-c5c(Cl)cncc5Cl)noc4C4CC4)(CC2)CC3)nc1 [Example 114, 6-((4-((5-cyclopropyl-3-(3,5-dichloropyridin-4-yl)isoxazol-4-yl)methoxy)bicyclo[2.2.2]octan-1-yl)methoxy)nicotinic acid] | 140
17 | O=C(O)c1ccc2cc(OCC34CCC(OCc5c(-c6c(Cl)cncc6Cl)noc5C5CC5)(CC3)CC4)ccc2n1 [Example 115, 6-((4-((5-cyclopropyl-3-(3,5-dichloropyridin-4-yl)isoxazol-4-yl)methoxy)bicyclo[2.2.2]octan-1-yl)methoxy)quinoline-2-carboxylic acid] | 52
18 | O=C(O)Cc1ccccc1OCC12CCC(OCc3c(-c4c(Cl)cccc4Cl)noc3C3CC3)(CC1)CC2 [Example 116, 2-(2-((4-((5-cyclopropyl-3-(2,6-dichlorophenyl)isoxazol-4-yl)methoxy)bicyclo[2.2.2]octan-1-yl)methoxy)phenyl)acetic acid] | 900
19 | NC(=O)c1cccc(OCC23CCC(OCc4c(-c5c(Cl)cccc5Cl)noc4C4CC4)(CC2)CC3)n1 [Example 117, 6-((4-((5-cyclopropyl-3-(2,6-dichlorophenyl)isoxazol-4-yl)methoxy)bicyclo[2.2.2]octan-1-yl)methoxy)picolinamide] | 310
20 | O=C(O)c1cnc(OCC23CCC(OCc4c(-c5c(Cl)cncc5Cl)noc4C4CC4)(CC2)CC3)c(F)c1 [Example 118, 6-((4-((5-cyclopropyl-3-(3,5-dichloropyridin-4-yl)isoxazol-4-yl)methoxy)bicyclo[2.2.2]octan-1-yl)methoxy)-5-fluoronicotinic acid] | 33
21 | COc1cncc(Cl)c1-c1noc(C2CC2)c1COC12CCC(COc3cc(C)c(C(=O)O)cn3)(CC1)CC2 [Example 119, 6-((4-((3-(3-chloro-5-methoxypyridin-4-yl)-5-cyclopropylisoxazol-4-yl)methoxy)bicyclo[2.2.2]octan-1-yl)methoxy)-4-methylnicotinic acid] | 120
22 | COc1cncc(Cl)c1-c1noc(C2CC2)c1COC12CCC(COc3ccc(C)c(C(=O)O)n3)(CC1)CC2 [Example 120, 6-((4-((3-(3-chloro-5-methoxypyridin-4-yl)-5-cyclopropylisoxazol-4-yl)methoxy)bicyclo[2.2.2]octan-1-yl)methoxy)-3-methylpicolinic acid] | 2300
23 | O=C(O)c1ccc(F)c(C(O)C23CCC(OCc4c(-c5c(Cl)cccc5Cl)noc4C4CC4)(CC2)CC3)c1 (stereo not drawn) [Example 121, 3-((4-((5-cyclopropyl-3-(2,6-dichlorophenyl)isoxazol-4-yl)methoxy)bicyclo[2.2.2]octan-1-yl)(hydroxy)methyl)-4-fluorobenzoic acid] | 1500
24 | O=C(O)c1cc(F)c2nc(C(O)C34CCC(OCc5c(-c6c(Cl)cccc6Cl)noc5C5CC5)(CC3)CC4)sc2c1 (stereo not drawn) [Example 122, 2-((4-((5-cyclopropyl-3-(2,6-dichlorophenyl)isoxazol-4-yl)methoxy)bicyclo[2.2.2]octan-1-yl)(hydroxy)methyl)-4-fluorobenzo[d]thiazole-6-carboxylic acid] | 1000
25 | NC(=O)c1cc(F)c2nc(C(O)C34CCC(OCc5c(-c6c(Cl)cccc6Cl)noc5C5CC5)(CC3)CC4)sc2c1 (stereo not drawn) [Example 123, 2-((4-((5-cyclopropyl-3-(2,6-dichlorophenyl)isoxazol-4-yl)methoxy)bicyclo[2.2.2]octan-1-yl)(hydroxy)methyl)-4-fluorobenzo[d]thiazole-6-carboxamide] | 280
26 | O=C(O)c1ccc2nc(C(O)C34CCC(OCc5c(-c6c(Cl)cccc6Cl)noc5C5CC5)(CC3)CC4)sc2c1 (stereo not drawn) [Example 124, 2-((4-((5-cyclopropyl-3-(2,6-dichlorophenyl)isoxazol-4-yl)methoxy)bicyclo[2.2.2]octan-1-yl)(hydroxy)methyl)benzo[d]thiazole-6-carboxylic acid] | 490
27 | O=C(O)c1ccc(C(O)C23CCC(OCc4c(-c5c(Cl)cccc5Cl)noc4C4CC4)(CC2)CC3)c(F)c1 (stereo not drawn) [Example 125, 4-((4-((5-cyclopropyl-3-(2,6-dichlorophenyl)isoxazol-4-yl)methoxy)bicyclo[2.2.2]octan-1-yl)(hydroxy)methyl)-3-fluorobenzoic acid] | 1600
28 | O=C(O)c1ccc2cc(C(O)C34CCC(OCc5c(-c6c(Cl)cccc6Cl)noc5C5CC5)(CC3)CC4)ccc2c1 (stereo not drawn) [Example 126, 6-((4-((5-cyclopropyl-3-(2,6-dichlorophenyl)isoxazol-4-yl)methoxy)bicyclo[2.2.2]octan-1-yl)(hydroxy)methyl)-2-naphthoic acid] | 600
29 | O=C(O)c1cccc(CC(O)C23CCC(OCc4c(-c5c(Cl)cccc5Cl)noc4C4CC4)(CC2)CC3)c1 (stereo not drawn) [Example 127, 3-(2-(4-((5-cyclopropyl-3-(2,6-dichlorophenyl)isoxazol-4-yl)methoxy)bicyclo[2.2.2]octan-1-yl)-2-hydroxyethyl)benzoic acid] | 280
30 | O=C(O)c1ccc2c(C(O)C34CCC(OCc5c(-c6c(Cl)cccc6Cl)noc5C5CC5)(CC3)CC4)ccnc2c1 (stereo not drawn) [Example 128, 4-((4-((5-cyclopropyl-3-(2,6-dichlorophenyl)isoxazol-4-yl)methoxy)bicyclo[2.2.2]octan-1-yl)(hydroxy)methyl)quinoline-7-carboxylic acid] | 700
